The values below come from patent US20110124888A1, “STYRYLBENZOFURAN DERIVATIVES AS INHIBITORS FOR BETA-AMYLOID FIBRIL FORMATION AND PREPARATION METHOD THEREOF” (Korea Institute of Science and Technology, priority 2008, published 2011).

The assay has as its target T1, beta-amyloid 42 (Aβ42) (Homo sapiens, UniProt P05067).
T1 construct: Beta-amyloid 42 (Aβ42) was dissolved in dimethylsulfoxide (DMSO)
In words: Inhibitory effect on the formation of beta-amyloid fibrils in vitro (ThT fluorescence assay). The format is biochemical. The following applies: for inhibition at 10 µM: read-out: % Inhibition (10 μM); for IC50: In vitro ThT analysis (Aβ42: 25 μM); for % inhibition against the beta-amyloid 42 formation compared with curcumin: Tables 1 to 6, relative to curcumin. How it is done:
In order to investigate the inhibitory effect on the formation of beta-amyloid fibrils, the inventive compounds were examined as follows:
Beta-amyloid 42 (Aβ42) was dissolved in dimethylsulfoxide (DMSO) to form a […] Aβ42 stock solution. In addition, ThT (thioflavin T) was dissolved in distilled water to a concentration of 1 mM and subsequently diluted with 50 mM glycin buffer (pH 8.5) to yield a 5 μM ThT stock solution.
45 μL of PBS (phosphate buffer saline, pH 7.4) was added to each of a 96 well fluorescence microplate (white, F-bottom). 5 μL of the 250 μM Aβ42 stock solution was added to each well. The final concentration of each compound obtained in Examples was in a range of 10 to 0.001 μM by adding 2 μL of a solution, which is prepared by dissolving the subject compounds obtained in Examples in DMSO, to each well. At this time, the final concentration of Aβ42 in each well was 25 μM. The plate was then incubated at room temperature for 1 hr, and 150 μL of the 5 μM ThT stock solution was added to each well.
The fluorescence intensity of each well was determined with the multi label fluorescence counter (LS-55 Luminescence spectrometer, Perkin Elmer) at an excitation wavelength of 450 nm (excitation slit width: 10 nm) and an emission wavelength of 482 nm (emission slit width: 10 nm), while adjusting counting time to 1 second. The control group was prepared by adding PBS solution, Aβ42 and DMSO, without adding the inventive compound. % Inhibition on the formation of beta-amyloid fibrils was calculated in accordance with the following equation and IC5O was calculated by using GraphPad Prism version 4.03 Program.
% Inhibition=[1−(C−D)/(A−B)]×100 Equation 1%
A (control group): fluorescence intensity in a group treated with PBS solution, Aβ42, and DMSO
B (blank): fluorescence intensity in a group treated with PBS solution and DMSO
C (experimental group): fluorescence intensity in a group treated with PBS solution, Aβ42, DMSO, and the inventive compound
D (compensation value to the experimental group): fluorescence intensity in a group treated with PBS solution, DMSO, and the inventive compound

Setting [1] is: 10 μM compound, Aβ42 25 μM, experiment of Table 2.
[2] abbreviates: 10 μM compound, Aβ42 25 μM, experiment of Table 6.
[3] abbreviates: 10 μM compound, Aβ42 25 μM, experiment of Table 5.
Where [4] appears, read: 10 μM compound, Aβ42 25 μM, experiment of Table 4.
Where [5] appears, read: 10 μM compound, Aβ42 25 μM, experiment of Table 3.

Counter-ions that a name gives are not always drawn. Like-named read-outs stand apart in the source and are kept apart here.

T1 sequence (P05067 672-713 limits assumed): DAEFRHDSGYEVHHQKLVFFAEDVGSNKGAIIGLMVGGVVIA

Broadly, the inhibition is the relative decrease from the control value, in per cent. One may read the IC50 as the midpoint of a concentration-inhibition curve. Read a high IC50 as lower potency. On to `COc1ccc(C=Cc2cc3cc(C)ccc3o2)cc1` [Compound 42, 5-methyl-2-(4-methoxystyryl)benzofuran], for which the inhibition at 10 µM under setting [1] was 69.7%. Under “experiment of Table 2”, this molecule gave an IC50 of 15.9 µM.

Turning to `COc1ccc(C=Cc2cc3cc(C)ccc3o2)cc1OC` [Compound 43, 5-methyl-2-(3,4-dimethoxystyryl)benzofuran], under setting [1], the inhibition at 10 µM was found to be 69.4%. Moreover, under “experiment of Table 2”, it took 10.5 µM to reach half-maximal inhibition (IC50).

On to `CNc1ccc(C=Cc2cc3cc(OCCOCCF)ccc3o2)cc1` [Compound 44, 5-(2-(2-fluoroethoxy)ethoxy)-2-(4-methylaminostyryl)benzofuran], for which the “% inhibition against the beta-amyloid 42 formation compared with curcumin” value (“% inhibition” below) is “superior % inhibition”. Moreover, under setting [2], the inhibition at 10 µM stood at 84.7%. Also, half-maximal inhibition (experiment of Table 6) (IC50) was put at 1.49 µM.

Regarding `CNc1ccc(C=Cc2cc3cc(OCCOCCOCCF)ccc3o2)cc1` [Compound 45, 5-(2-(2-(2-fluoroethoxy)ethoxy)ethoxy)-2-(4-methylaminostyryl)benzofuran], the inhibition at 10 µM under setting [3] is 53.5%.

With `CNc1ccc(C=Cc2cc3cc(I)ccc3o2)cc1` [Compound 46, 5-iodo-2-(4-methylaminostyryl)benzofuran], the “% inhibition” value is recorded as “superior % inhibition”. Under setting [2], the inhibition at 10 µM turned out to be 61%. Also, under “experiment of Table 6”, half-maximal inhibition (IC50) was put at 1.77 µM.

For the molecule `CCN(CC)c1ccc(C=Cc2cc3cc(I)ccc3o2)cc1` [Compound 47, 5-iodo-2-(4-diethylaminostyryl)benzofuran], the “% inhibition” value is given as “superior % inhibition”. Moreover, under setting [3], the inhibition at 10 µM stood at 63.3%. This molecule displayed an IC50 (experiment of Table 5) of 1.05 µM.

In the case of `CNc1ccc(C=Cc2cc3cc(I)ccc3o2)cc1OC` [Compound 48, 5-iodo-2-(3-methoxy-4-methylaminostyryl)benzofuran], the “% inhibition” value is listed as “superior % inhibition”. The inhibition at 10 µM under setting [2] stood at 74.2%. For the same molecule, under “experiment of Table 6”, the half-inhibitory concentration (IC50) came to 1.05 µM.

With `COc1ccc(C=Cc2cc3cc(I)ccc3o2)cc1` [Compound 49, 5-iodo-2-(4-methoxystyryl)benzofuran], the inhibition at 10 µM under setting [4] amounted to 38%. Further, 16.8 µM corresponded to half-maximal inhibition (experiment of Table 4) (IC50).

With `COc1ccc(C=Cc2cc3cc(I)ccc3o2)cc1OC` [Compound 50, 5-iodo-2-(3,4-dimethoxystyryl)benzofuran], the inhibition at 10 µM under setting [4] was 62.4%. For the setting “experiment of Table 4”, this molecule returned an IC50 of 5.79 µM.

Take `COc1cc2cc(C=Cc3ccc(N(C)C)cc3)oc2cc1OC` [Compound 51, 5,6-dimethoxy-2-(4-dimethylaminostyryl)benzofuran]: under setting [3], the inhibition at 10 µM came out at 29.2%.

Turning to `CCN(CC)c1ccc(C=Cc2cc3cc(OC)c(OC)cc3o2)cc1` [Compound 52, 5,6-dimethoxy-2-(4-diethylaminostyryl)benzofuran], the inhibition at 10 µM under setting [3] is 42.3%.

Regarding `CNc1ccc(C=Cc2cc3cc(OC)c(OC)cc3o2)cc1OC` [Compound 53, 5,6-dimethoxy-2-(3-methoxy-4-methylaminostyryl)benzofuran], under setting [3], the inhibition at 10 µM is 56.2%.

As to `COc1ccc(C=Cc2cc3cc(OC)c(OC)cc3o2)cc1` [Compound 54, 5,6-dimethoxy-2-(4-methoxystyryl)benzofuran], the “% inhibition” value is recorded as “superior % inhibition”. For the same molecule, the inhibition at 10 µM under setting [2] stood at 77.8%. For the same molecule, the IC50 (experiment of Table 6) stood at 0.903 µM.

On to `COc1ccc(C=Cc2cc3cc(OC)c(OC)cc3o2)cc1OC` [Compound 55, 5,6-dimethoxy-2-(3,4-dimethoxystyryl)benzofuran], for which the inhibition at 10 µM under setting [3] was determined as 51.4%.

In the case of `CCN(CC)c1ccc(C=Cc2cc3cc(O)ccc3o2)cc1` [Compound 56, 5-hydroxy-2-(4-diethylaminostyryl)benzofuran], the “% inhibition” value is “superior % inhibition”. The inhibition at 10 µM under setting [1] amounted to 81.6%. Moreover, under “experiment of Table 2”, the IC50 turned out to be 1.3 µM.

As for `CCN(CC)c1ccc(C=Cc2cc3ccc(OC)cc3o2)cc1` [Compound 57, 6-methoxy-2-(4-diethylaminostyryl)benzofuran], the inhibition at 10 µM under setting [5] was 62.8%.

On to `COc1ccc(C=Cc2cc3ccc(OC)cc3o2)cc1` [Compound 58, 6-methoxy-2-(4-methoxystyryl)benzofuran], for which the inhibition at 10 µM under setting [5] was determined as 57.2%.

As for `COc1ccc2cc(C=Cc3ccc(OC)c(OC)c3)oc2c1` [Compound 59, 6-methoxy-2-(3,4-dimethoxystyryl)benzofuran], the “% inhibition” value is “superior % inhibition”. Also, the inhibition at 10 µM under setting [2] was 79.9%. The molecule also returned a half-maximal inhibitory concentration (IC50) (experiment of Table 6) of 1.02 µM.

Regarding `Cc1ccc2cc(C=Cc3ccc(N)cc3)oc2c1` [Compound 61, 6-methyl-2-(4-aminostyryl)benzofuran trifluoroacetate], the inhibition at 10 µM under setting [5] turned out to be 57.5%.

On to `CNc1ccc(C=Cc2cc3ccc(C)cc3o2)cc1` [Compound 62, 6-methyl-2-(4-methylaminostyryl)benzofuran trifluoroacetate], for which, under setting [5], the inhibition at 10 µM stood at 46.5%.

As to `COc1ccc(C=Cc2cc3ccc(C)cc3o2)cc1OC` [Compound 65, 6-methyl-2-(3,4-dimethoxystyryl)benzofuran], the “% inhibition” value is “superior % inhibition”. The inhibition at 10 µM under setting [3] came to 67.5%. The molecule also yielded a half-maximal inhibitory concentration (IC50) (experiment of Table 5) of 0.884 µM.

For `CNc1ccc(C=Cc2cc3ccc(OCCOCCOCCF)cc3o2)cc1` [Compound 66, 6-(2-(2-(2-fluoroethoxy)ethoxy)ethoxy)-2-(4-methylaminostyryl)benzofuran], the inhibition at 10 µM under setting [3] amounted to 61.7%.

Take `Nc1ccc(C=Cc2cc3ccc(O)cc3o2)cc1` [Compound 67, 6-hydroxy-2-(4-aminostyryl)benzofuran]: under setting [3], the inhibition at 10 µM stood at 60.2%.

Take `CNc1ccc(C=Cc2cc3ccc(O)cc3o2)cc1` [Compound 68, 6-hydroxy-2-(4-methylaminostyryl)benzofuran]: under setting [3], the inhibition at 10 µM was determined as 61.9%.

Consider `CCN(CC)c1ccc(C=Cc2cc3ccc(O)cc3o2)cc1` [Compound 69, 6-hydroxy-2-(4-diethylaminostyryl)benzofuran], for which the inhibition at 10 µM under setting [3] turned out to be 42.2%.

Regarding `CNc1ccc(C=Cc2cc3cc(OC)c(OC)cc3o2)cc1` [Compound 70, 5,6-dimethoxy-2-(4-methylaminostyryl)benzofuran], the inhibition at 10 µM under setting [3] amounted to 25.8%.

For `COc1cc(/C=C/C(=O)CC(=O)/C=C/c2ccc(O)c(OC)c2)ccc1O` [curcumin, reference compound], the inhibition at 10 µM turned out to be 78.3%. Further, the inhibition at 10 µM under setting [1] came to 92.1%. Further, the inhibition at 10 µM under setting [4] was found to be 79.7%. Moreover, the inhibition at 10 µM under setting [3] is 67.8%. The inhibition at 10 µM under setting [2] was 98.1%. Moreover, the inhibition at 10 µM (10 μM compound, Aβ42 25 μM, experiment of Table 7) came to 76.4%.

On to `COc1ccc2cc(/C=C/c3ccc(N(C)C)cc3)oc2c1` [hydrochloride of Ex. 9], for which the “% inhibition” value is recorded as “superior % inhibition”. Further, the inhibition at 10 µM under setting [2] is 62.9%. Where the note is “experiment of Table 6”, this molecule had a half-inhibitory concentration (IC50) of 1.88 µM.

With `CNc1ccc(/C=C/c2cc3cc(OC)ccc3o2)cc1` [hydrochloride of Ex. 17], the “% inhibition” value was “superior % inhibition”. In addition, under setting [2], the inhibition at 10 µM was determined as 74.1%. This molecule also registered an IC50 (experiment of Table 6) of 0.661 µM.
